For data set [1], the system named is C. elegans germline. The following applies: in vivo, 4 days, 1 mM. An excerpt: Synapsis and recombination are tightly linked events during pachytene throughout various species, as it is only in the context of a fully assembled SC that crossover recombination can be completed. Indeed, in C. elegans, null mutants of SC components such as syp-1, syp-2, syp-3, syp-4 and him-3, increased levels of RAD-51 foci formation and delayed kinetics of foci turnover are observed during pachytene. Consequently, there is activation of the DNA damage checkpoint leading to increased germ cell apoptosis. Recombination is an essential and highly regulated process for the exchange of information that takes place during prophase I [18]. As nuclei exit mitosis and progress through meiosis, programmed meiotic DNA double strand breaks (DSBs) are formed and processed by several DNA repair proteins including RAD-51 [25, 48]. RAD-51 levels vary greatly during progression through prophase I as it is loaded onto DNA during the process of strand invasion and is removed as DSBs repair progresses. […] As unrepaired recombination intermediates can trigger a DNA-damage checkpoint during pachytene leading to increased germ cell apoptosis, the number of apoptotic nuclei following BPA exposure was measured by Syto-12 staining. […]
Rad-51 Time Course Analysis. The number of RAD-51 foci and their kinetics throughout the seven zones was assessed as described in [25]. […]

In data set [2] the test system is C. elegans diakinesis oocytes. The experiment in a line: Diakinesis oocyte analysis (chromosome condensation, SYP-1, AIR-2, pH3). Conditions: for -1 oocytes showing lack of condensation: BPA. The source says: Proper processing of recombination events is coupled with the formation of mature bivalents during the diakinesis stage such that in mutants where recombination intermediate processing is impaired, bivalent maturation is delayed.
Associated with the changes in chromatin morphology, the SC is disassembled during late diakinesis in a tightly controlled fashion. Accordingly, SC components, such as SYP-1, are detectable on the short arms of the bivalent in the −3 oocyte but are essentially absent from the bivalents of −2 and −1 oocytes. Thus, whether a delay in chromosome remodeling could correlate with an incomplete disassembly of SC components in late diakinesis was examined.
Accurate chromosome segregation at meiosis I is characterized by the carefully orchestrated loss of cohesion between homologs coupled with retention of cohesion between sister chromatids. This regulated process involves the targeting of the Aurora-B kinase AIR-2, a member of the chromosomal passenger complex, to the short arm of the bivalents in the −1 oocyte which has been proposed to lead to the removal the meiosis-specific cohesin REC-8 from the short arms of the bivalent. To examine whether these key steps in late meiotic prophase I might be impaired in BPA treated gonads, the localization of AIR-2 in the −1 oocytes was examined. […] Phospho histone H3 (pH3) is a canonical substrate for the activity of AIR-2 [59] and accordingly, although it accumulates in the −3 to −1 oocytes, it is only detected on the short arms of the bivalent in the −1 oocyte in the presence of AIR-2 [56, 57].
BPA bears endocrine disrupting activity in many developmental contexts including gonadal, brain and mammary gland development. BPA has affinity for multiple members of the estrogen receptors family, in particular BPA binds to the human estrogen receptor alpha (ERα) and ERβ as well as estrogen-related receptor gamma (ERR-γ) and in C. elegans with nuclear hormone receptor NHR-14 which also binds estrogen. […] Two hallmarks of exposure to BPA were examined, the decrease in the size of the proliferative zone and the condensation defects observed at diakinesis, as they are both highly penetrant and consistent phenotypes. […] Similarly to the experiments described above, the size of the mitotic zone was quantified as well as condensation defects at diakinesis.
Antibody Staining. DAN staining, immunostaining and analysis of stained meiotic nuclei were performed as in [25] except for ATL-1 and AIR-2 antibodies were dissected gonads were subjected to a 1% fixation method as described in [27]. Antibodies were used at the following dilutions: rabbit α-SYP-1 (1:100), mouse α-RAD-51 (1:100), rabbit α-HTP-3 (1:500), guinea pig α-HIM-8 (1:100), rabbit α-ATL-1 (1:50), rabbit α-AIR-2 (1:100) and rabbit α-pCHK-1 (1:100). The secondary antibodies used were: Cy3 anti-rabbit, FITC anti-guinea-pig and FITC anti-mouse (Jackson Immunochemicals), each at 1:100, Stacks of 0.2 μm slices were captured using a Leica microscope, coupled to the DeltaVision fluorescence microscope system (Applied Precision). The images were projections approximately halfway through 3D data stacks of whole nuclei, except for diakinesis images which encompass entire nuclei.

The test system of data set [3] is H2B::mCherry; γ-tubulin::GFP transgenic worms. The following applies: OD57 (pie-1::mCherry::H2B; pie-1::GFP::gamma tubulin), C. elegans, in vivo. The procedure: 60 first mitosis in ethanol and BPA exposed H2B::mCherry; γ-tubulin::GFP transgenic worms were captured by live imaging. While normal pronuclear fusion and chromosomal alignment and segregation in ethanol controls was observed, the first division of BPA exposed embryos was highly abnormal. […] In some instances, multiple spindle poles were apparent.
Live Imaging. For live imaging, a pie-1::mCherry::H2B; pie-1::GFP::gamma tubulin OD57 strain was used. The strain was incubated at 25° C. 24 hours prior to imaging. Images were captured using the Leica-Deltavision system described above. Worms were immobilized on an agarose pad by sectioning of the head and images of the first cell division were captured at a rate of one image every 10 seconds for 5 minutes.

For data set [4], the system named is xol-1::GFP worms. The experiment in a line: Lethality, chemical sensitivity of xol-1::GFP strain. The following applies: 100 μM, 500 μM and 1 mM, four days from eggs to adulthood, 25 worms. In kind it is in vivo, C. elegans. The procedure: The sensitivity of the xol-1::GFP, nx3 strain compared to the xol-1::GFP strain was assayed by exposing 25 worms for four days (from eggs to adulthood) to a range of concentration of Bisphenol A: 100 μM, 500 μM and 1 mM. The nx3 cuticle mutation was expected to confer increased sensitivity to BPA.

Consider `CC(C)(c1ccc(O)cc1)c1ccc(O)cc1` [BPA, Bisphenol A], for which the “RAD-51 foci in late pachytene (zones 6 and 7)” value in data set [1] was “elevated number of RAD-51 foci”. In addition, the “gonads with SYP-1 staining on short arm of bivalent in the -1 oocyte” value in data set [2] (BPA exposed gonads) was 10%. Besides, the “-1 oocytes with pH3 staining localized to the bivalents” value in data set [2] (BPA treated) is 14%. In data set [2] (BPA treated gonads), the “gonads in which AIR-2 was not detected on the bivalents of -1 oocytes” value is 100%, the “gonads in which the -1 oocyte did not show normal chromosome condensation” value is 23% and the “gonads with residual SYP-1 staining on short arm of bivalent in the -2 oocyte” value is 80%. Besides, in data set [2] (BPA treated oocytes), the “kinetics of pH3 nuclear accumulation in diakinesis oocytes” value is recorded as “delay in the kinetics of pH3 nuclear accumulation”. In addition, the “-1 oocytes showing lack of condensation” value in data set [2] (one day post-L4) turned out to be 17%. Also, in data set [2] (three days post-L4), the “-1 oocytes showing lack of condensation” value is 28%. Besides, in data set [2] (two days post-L4), the “-1 oocytes showing lack of condensation” value came out at 24%. Besides, the “delay in bivalent maturation judged by nuclear morphology” value in data set [2] (all BPA gonads examined, from -1, -2 or -3 oocyte) is “some level of delay in bivalent maturation”. The “one-cell embryos failing to align on the metaphase plate and/or segregate properly” value in data set [3] is given as 9/60. In addition, the lethality in data set [4] was 0%.

Values taken from patent publication US20120028837A1, “RAPID SCREEN FOR REPRODUCTIVE TOXICANTS” (PRESIDENT AND FELLOWS OF HARVARD COLLEGE, priority 2010, published 2012).
